Measurements as given in patent publication US12227512B2, “Benzimidazoles and methods of using same” (priority 2019, dated 2025).
Where two headings read alike, the source gives them in different places.

Tests used:
[1] = Neutral Red (Toxicity) of the antiviral screening; conditions: African green monkey
[2] = Neutral Red (Toxicity) of the antiviral screening; conditions: human
[3] = tested on: Dengue virus 2 New Guinea C; test: In vitro antiviral screening, Neutral Red (Cytopathic effect); conditions: Huh7; for SI50: Neutral Red (Cytopathic effect/Toxicity); for EC50: Dengue virus, Neutral Red (Cytopathic effect)
Zika MR766 [4] = test: In vitro antiviral screening, Visual (Virus yield reduction); conditions: Vero 76
[5] = tested on: Raji (Burkitt Lymphoma cell line); test: Raji cell viability / proliferation; conditions: Homo sapiens, read-out: IC50, Raji cell proliferation
[6] = tested on: cap-dependent and Myc 5'-UTR cap-independent translation; test: Dual luciferase Myc 5' UTR translation reporter in Huh 7.5 cells; type: cell-based; conditions: Renilla (5' cap) / firefly (Myc 5' UTR) luciferase
Description: The dual luciferase plasmid construct described by Willis and co-workers was transfected into Huh 7.5 cells. The Renilla luciferase cistron is translated from a 5′ cap, then the Myc 5′ UTR is placed in front of firefly luciferase to evaluate cap-independent translation from the same mRNA. […] This assay is a proxy for c-Myc translation activity. See also Stoneley et al. (2000) Nucleic Acids Res. 28: 687-94.

c-Myc and n-Myc = test: Western blot for c-Myc and n-Myc in Huh7.5 cells; type: cell-based; conditions: 2 μM compound, Western blotting
Method: Referring to FIG. 8, the ability of Isis-11 (racemic) to inhibit c-Myc and n-Myc was evaluated. Huh7.5 cells were treated with 2 μM compound or no compound as a control. The cells were lysed and harvested at the indicated times. Western blotting was performed using antibodies as shown after serial stripping. […] YB-1 is known to be part of a positive feedback loop with Myc and is also affected by Myc inhibition.

CML CD34+ cells = test: Colony-forming assay, Chronic Myeloid Leukemia; conditions: for CML CD34+ colony formation: 0 μM = 100
[7] = tested on: Gli-luciferace activity in the SUFU-KO-light cells; test: SUFU-KO-Light assay, inhibition of Gli-luciferase activity; type: cell-based; conditions: read-out: IC50 (μM) SUFU-KO-Light, inhibition of Gli-luciferase activity
Description: IC50 SUFO-KO-Light values are for inhibition of Gli-luciferace activity in the SUFU-KO-light cells developed by the James Chen laboratory at Stanford University.

Gli-1 and c-Myc = test: Western blot of Gli-1 and c-Myc in SUFU-KO-Light cells; type: cell-based; conditions: 48 hours, immunoblotting
[8] = tested on: Dengue virus 2 New Guinea C; test: In vitro antiviral screening, Visual (Virus yield reduction); conditions: Huh7; for SI90: Visual (Virus yield reduction)/Neutral Red (Toxicity); for EC90: Dengue virus, Visual (Virus yield reduction)
[9] = tested on: Hedgehog signaling (Gli transcription factors); test: Hedgehog pathway inhibition, cell-based reporter sensitive to Shh ligand; conditions: read-out: EC50, hedgehog inhibition potency
[10] = tested on: Hedgehog signaling (Gli transcription factors); test: Hedgehog pathway inhibition, cell-based reporter derived from fibroblast SUFU knockouts; conditions: read-out: EC50, hedgehog inhibition potency
Zika MR766 [11] = test: In vitro antiviral screening, Neutral Red (Cytopathic effect); conditions: Vero 76

CN(C)CCCn1c(N)nc2ccc3c(c21)CC(CN(C)C)O3 (racemic) [Isis-11]
CC50 [1]: 20000 nM
CC50 ([2]; CC50, Assay No. 1, Neutral Red (Cytopathic effect/Toxicity) line): 6900 nM
CC50 ([2]; CC50, Assay No. 1, Neutral Red (Toxicity), line of the virus yield reduction assay): 6900 nM
CC50 ([2]; CC50, Assay No. 2, Neutral Red (Cytopathic effect/Toxicity) line): 2400 nM
CC50 ([2]; CC50, Assay No. 2, Neutral Red (Toxicity), line of the virus yield reduction assay): 2400 nM
SI50 ([3]; Assay No. 1): 3.8
SI50 ([3]; Assay No. 2): 4.9
EC50 ([3]; Huh-7, Assay No. 1): 1800 nM
EC50 ([3]; Huh-7, Assay No. 2): 490 nM
SI90 (Zika MR766 [4]; Assay No. 3, Visual (Virus yield reduction)/Neutral Red (Toxicity)): 22
EC90 (Zika MR766 [4]; Zika virus): 930 nM
IC50 [5]: 500 nM
effect on cap-dependent and cap-independent translation [6]: inhibits both cap-dependent and cap-independent translation
c-Myc and n-Myc protein (c-Myc and n-Myc): inhibited at the protein level
colony formation (CML CD34+ cells; 0.8 μM): completely inhibited
CML CD34+ colony formation (CML CD34+ cells; 14-290, 0.1 μM): 91.81
CML CD34+ colony formation (CML CD34+ cells; 14-290, 0.2 μM): 19.40
CML CD34+ colony formation (CML CD34+ cells; 14-290, 0.4 μM): 12.50
CML CD34+ colony formation (CML CD34+ cells; 14-290, 0.8 μM): 0
CML CD34+ colony formation (CML CD34+ cells; 14-290, 1.6 μM): 0
CML CD34+ colony formation (CML CD34+ cells; 15-186, 0.1 μM): 87.06
CML CD34+ colony formation (CML CD34+ cells; 15-186, 0.2 μM): 52.10
CML CD34+ colony formation (CML CD34+ cells; 15-186, 0.4 μM): 38.81
CML CD34+ colony formation (CML CD34+ cells; 15-186, 0.8 μM): 0
CML CD34+ colony formation (CML CD34+ cells; 15-186, 1.6 μM): 0
CML CD34+ colony formation (CML CD34+ cells; AVG, 0.1 μM): 89.44
CML CD34+ colony formation (CML CD34+ cells; AVG, 0.2 μM): 35.75
CML CD34+ colony formation (CML CD34+ cells; AVG, 0.4 μM): 25.66
CML CD34+ colony formation (CML CD34+ cells; AVG, 0.8 μM): 0
CML CD34+ colony formation (CML CD34+ cells; AVG, 1.6 μM): 0
EC50 (CML CD34+ cells; read-out: EC50, CML CD34+ colony formation): ~150 nM
EC50 (CML CD34+ cells; read-out: EC50, inhibition of colony formation): ~150 nM
IC50 [7]: 0.2 µM
Gli-1 and c-Myc levels (Gli-1 and c-Myc): decrease both Gli-1 and c-Myc
SI90 ([8]; Assay No. 1): 2.6
SI90 ([8]; Assay No. 2): 6.3
EC90 ([8]; Huh-7, Assay No. 1): 2700 nM
EC90 ([8]; Huh-7, Assay No. 2): 380 nM
EC50 [9]: ~100 nM
EC50 [10]: ~100 nM
SI50 (Zika MR766 [11]; Assay No. 3, Neutral Red (Cytopathic effect/Toxicity)): 23
EC50 (Zika MR766 [11]; Zika virus): 880 nM
